Literature values as cited in patent publication US20090012284A1, “Process for the Preparation of a Piroxicam: Betacyclodextrin Inclusion Compound” (Chiesi Farmaceutici S.p.A., priority 2004, published 2009).

Conditions: pH 5, 37° C.

solubility in water: 0.003%
Structure (SMILES): CN1C(C(=O)Nc2ccccn2)=C(O)c2ccccc2S1(=O)=O [Piroxicam]
